According to publication PMC7155171, “Probing the Open Global Health Chemical Diversity Library for Multistage-Active Starting Points for Next-Generation Antimalarials” (ACS Infectious Diseases, 2020):
Where two headings read alike, the source gives them in different places.

Test system: P. falciparum Dd2 (PfLuc) line expressing firefly luciferase, asexual blood stage
Experiment: microbe, parasite or virus in culture
Format: cell-based, Plasmodium falciparum
[1] = Plasmodium falciparum, DD2, 8-pt dose response, 96hr, read-out: P. falciparum Luciferase ABS 8-pt Reconfirmation Dose Response (96hr): IC50
[2] = Plasmodium falciparum, DD2, 8-pt dose response, 96hr, read-out: P. falciparum Luciferase ABS 8-pt Reconfirmation Dose Response (96hr): Maximum inhibition (%)
[3] = Plasmodium falciparum, DD2, 8-pt dose response, 96hr, read-out: CDD P. falciparum Luciferase ABS 8-pt Reconfirmation Dose Response (96hr): IC50
[4] = Plasmodium falciparum, DD2, 8-pt dose response, 96hr, read-out: CDD P. falciparum Luciferase ABS 8-pt Reconfirmation Dose Response (96hr): Maximum inhibition (%)

COc1cccc([C@H]2CN(C(C)=O)[C@@H]3CCN(Cc4ccsc4)C[C@H]23)c1 [DDD01061089]
IC50 [1]: 1.31 µM
Emax [2]: 82.2%

CCC(NCc1ccccc1C)c1ccccc1OCC(=O)NC (stereo not drawn) [DDD01075651]
IC50 (Plasmodium falciparum, DD2, read-out: CDD P. falciparum Luciferase ABS 11-pt Reconfirmation Dose Response (48hr): IC50 (μM), 11-pt dose response, 48hr): > 12.5 µM
IC50 [3]: 0.85 µM
Emax [4]: 76.9%
Emax (Plasmodium falciparum, DD2, 11-pt dose response, 48hr, read-out: CDD P. falciparum Luciferase ABS 11-pt Reconfirmation Dose Response (48hr): Maximum inhibition (%)): 60.7%
IC50 (Plasmodium falciparum, DD2, 11-pt dose response, 96hr, read-out: CDD P. falciparum Luciferase ABS 11-pt Reconfirmation Dose Response (96hr): IC50): 2.43 µM
Emax (Plasmodium falciparum, DD2, 11-pt dose response, 96hr, read-out: CDD P. falciparum Luciferase ABS 11-pt Reconfirmation Dose Response (96hr): Maximum inhibition (%)): 84.1%

Cn1cc(CN2CCCC(CCc3ccc(F)cc3F)C2)cn1 (stereo not drawn) [DDD01251707]
IC50 [1]: 1.69 µM
Emax [2]: 81%

CC(C)(C)n1cc(C2=CCN(CCN3CCCCCC3)CC2)cn1 [DDD01248990]
IC50 [1]: 1.53 µM
Emax [2]: 78.1%

CN(C[C@H]1CN2CC[C@H]1C[C@@H]2CNC(=O)c1ccco1)c1ccccc1 [DDD01024849]
IC50 [1]: 1.76 µM
Emax [2]: 83.2%

CC(C)Oc1ccc(C(O)CNCc2ccccc2C(F)(F)F)cc1 (stereo not drawn) [DDD01076007]
IC50 [1]: 1.5 µM
Emax [2]: 80.1%

CC(O)CN1CCC(CN(C)Cc2cc(F)cc3cccnc23)CC1 (stereo not drawn) [DDD01063726]
IC50 [1]: 1.33 µM
Emax [2]: 92.8%

COc1cccc(OC)c1CNC(Cc1ccsc1)c1ccc(C)cn1 (stereo not drawn) [DDD01058770]
IC50 [1]: 1.56 µM

CCN(CC1CN(Cc2nc(C3CC3)no2)CCO1)c1cccnn1 (stereo not drawn) [DDD01070232]
IC50 [1]: 1.86 µM
Emax [2]: 79.6%

Cc1ccccc1CN(CCN(C)C)Cc1ccc(S(C)(=O)=O)cc1 [DDD01251767]
IC50 [1]: 1.52 µM
Emax [2]: 76.8%

Cn1cc(CN2CCCC(CCc3ccc(F)cc3)C2)cn1 (stereo not drawn) [DDD01246631]
IC50 [1]: 1.75 µM
Emax [2]: 84.6%

c1cnnc(N2CCCC2CNc2ncnc3sccc23)c1 (stereo not drawn) [DDD01299704]
IC50 [1]: 1.61 µM
Emax [2]: 92.3%

CN1CCCC1CNC(=O)CCCOc1cccc(Br)c1 (stereo not drawn) [DDD01297989]
IC50 [1]: 1.4 µM
Emax [2]: 83.9%

O=C(CCN1CCCC(CO)(CC2CC2)C1)NCc1cccc(Cl)c1 (stereo not drawn) [DDD01250518]
IC50 [1]: 1.83 µM
Emax [2]: 81.8%

Doxycycline [reference compound]
IC50 (96 h incubation, Dd2 luciferase, read-out: 96 hour Pfluc IC50): 0.55 ± 0.2 µM
IC50 (read-out: 48 hour Pfluc IC50, 48 h incubation, Dd2 luciferase): 7.18 ± 1.59 µM

CCN(CC)C(CNC(=O)c1c(C)noc1C(C)C)c1ccsc1 (stereo not drawn) [DDD01298744]
IC50 [3]: 0.96 µM
Emax [4]: 85.7%

Fc1ccc(Sc2ccccc2CNC2=NCCN2)cc1 [DDD01035542]
IC50 [1]: 1.81 µM
Emax [2]: 81.8%

CCC(NCc1cccc(Cl)c1)c1ccccc1OCC(=O)NC (stereo not drawn) [DDD01075652]
IC50 [1]: 1.31 µM
Emax [2]: 76.5%

Cc1cccnc1CC(C)NC1Cc2ccccc2C1 (stereo not drawn) [DDD01255733]
IC50 [1]: 1.76 µM
Emax [2]: 81.8%

c1cncc(-c2ccc3c(c2)CCC32CCNCC2)c1 [DDD01031368]
IC50 [1]: 1.35 µM
Emax [2]: 95.6%

O=C(Cn1ccc2ccc(Br)cc21)NC[C@@H]1CCCN2CCCC[C@H]12 [DDD01035644]
IC50 [1]: 2.57 µM
Emax [2]: 81.8%

CNS(=O)(=O)c1cccc(C(C)NCc2ccccc2OC)c1 (stereo not drawn) [DDD01069885]
IC50 [1]: 1.18 µM
Emax [2]: 80.1%

Fc1ccc2c(C3=CCN(Cc4nnc(C5CCC5)o4)CC3)c[nH]c2c1 [DDD01071325]
IC50 [1]: 1.7 µM
Emax [2]: 88.7%

COc1ccccc1C(C)(C)NCc1ccc(C)o1 [DDD01074244]
IC50 [1]: 1.77 µM
Emax [2]: 82.7%

CN1CC[C@H](N(Cc2ccccc2)CC2CC2)C[C@H](O)C1 [DDD01026225]
IC50 [1]: 1.29 µM
Emax [2]: 82%

CCc1ccc(-c2cc(C(F)(F)F)nc(N3CCC(N)CC3)n2)cc1 [DDD01037626]
IC50 (Plasmodium falciparum, DD2, read-out: P. falciparum Luciferase ABS 11-pt Reconfirmation Dose Response (48hr): IC50, 11-pt dose response, 48hr): 1.86 µM
IC50 [1]: 1.72 µM
Emax [2]: 93.8%
Emax (Plasmodium falciparum, DD2, 11-pt dose response, 48hr, read-out: P. falciparum Luciferase ABS 11-pt Reconfirmation Dose Response (48hr): Maximum inhibition (%)): 98.9%
IC50 (Plasmodium falciparum, DD2, 11-pt dose response, 96hr, read-out: P. falciparum Luciferase ABS 11-pt Reconfirmation Dose Response (96hr): IC50): 0.828 µM
Emax (Plasmodium falciparum, DD2, 11-pt dose response, 96hr, read-out: P. falciparum Luciferase ABS 11-pt Reconfirmation Dose Response (96hr): Maximum inhibition (%)): 100%

Cn1ccnc1C(O)(CCNCc1ccc(Cl)o1)C(F)(F)F (stereo not drawn) [DDD01062848]
IC50 [1]: 2.81 µM
Emax [2]: 78.7%

Fc1ccccc1Sc1ccccc1CNC1=NCCN1 [DDD01035543]
IC50 [1]: 1.57 µM
Emax [2]: 83.6%

C[C@@H]1CC[C@H]2[C@@H](C)C(=O)O[C@@H]3O[C@@]4(C)CC[C@@H]1[C@]32OO4 [artemisinin, reference compound]
inhibition at 10 µM (Plasmodium falciparum, DD2, 96 h, control at 10 μM, read-out: mean inhibition of positive control in ABS primary screen): 99.6 ± 1.03%

Cc1nc(-c2cc(Cl)c3c(c2)CC(CN)O3)c[nH]1 (stereo not drawn) [DDD01252814]
IC50 [1]: 2.18 µM
Emax [2]: 88.7%
